Test results: patent US8524748B2, “Heteroalkyl biphenyl antagonists of prostaglandin D2 receptors” (Panmira Pharmaceuticals, LLC, priority 2008, dated 2013)

Each compound was assayed against T1, human DP2 receptor (Homo sapiens, UniProt Q9Y5Y4) (assay: DP2/CRTH2 radioligand binding assay using [3H]PGD2). Conditions: membranes of HEK293 cells stably expressing recombinant human DP2; 1 nM [3H]PGD2; read-out: hDP2 IC50.
T1 construct: expressed in transfected cells; membranes prepared from them
T1 sequence (Q9Y5Y4 1-395): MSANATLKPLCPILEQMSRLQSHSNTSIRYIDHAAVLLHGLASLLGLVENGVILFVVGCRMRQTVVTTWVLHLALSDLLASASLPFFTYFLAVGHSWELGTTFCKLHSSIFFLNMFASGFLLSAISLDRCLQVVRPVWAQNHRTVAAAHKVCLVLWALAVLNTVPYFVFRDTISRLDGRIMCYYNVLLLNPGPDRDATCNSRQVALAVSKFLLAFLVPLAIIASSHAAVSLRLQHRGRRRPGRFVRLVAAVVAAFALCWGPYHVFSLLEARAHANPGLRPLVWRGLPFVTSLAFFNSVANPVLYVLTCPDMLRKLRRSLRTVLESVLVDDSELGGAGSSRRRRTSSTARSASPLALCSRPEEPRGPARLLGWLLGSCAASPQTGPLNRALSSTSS
Description: The ability of a compound to bind to the human DP2 receptor is assessed via a radioligand binding assay using [^3H]PGD2. HEK293 cells stably expressing recombinant human DP2 are resuspended in 10 mM Hepes, 7.4 containing 1 mM DTT, lysed and centrifuged at 75,000×g to pellet the membranes. The membranes are resuspended in 10 mM Hepes, 7.4 containing 1 mM DTT and 10% glycerol to approximately 5 mg protein/ml. Membranes (2-10 μg protein/well) are incubated in 96-well plates with 1 nM [^3H]PGD2 and test compound in Assay Buffer (50 mM Hepes, 10 mM MnCl2, 1 mM EDTA, plus or minus 0.2% human serum albumin, pH 7.4) for 60 minutes at room temperature. The reactions are terminated by rapid filtration through Whatman GF/C glass fibre filter plates. The filter plates were pre-soaked in 0.33% polythylenimine for 30 minutes at room temperature then washed in Wash Buffer (50 mM Hepes, 0.5 M NaCl pH 7.4) prior to harvesting. After harvesting, the filter plates are washed 3 times with 1 ml cold Wash Buffer then dried. Scintillant is then added to the plates and the radioactivity retained on the filters is determined on a Packard TopCount (Perkin Elmer). Specific binding is determined as total radioactive binding minus non-specific binding in the presence of 10 μM PGD2. IC50s were determined using GraphPad prism analysis of drug titration curves.

For `COc1ccc(CC(=O)O)cc1-c1ccc(C(F)(F)F)cc1CSc1ccccc1` [Compound 1-1, (6-Methoxy-2′-phenylsulfanylmethyl-4′-trifluoromethyl-biphenyl-3-yl)-acetic acid], which IC50 is on record?
The IC50 was less than 1 µM.

For `COc1ccc(CC(=O)O)cc1-c1ccc(C(F)(F)F)cc1CSCc1ccccc1` [Compound 1-2, (2′-Benzylsulfanylmethyl-6-methoxy-4′-trifluoromethyl-biphenyl-3-yl)-acetic acid], which IC50 is on record?
Its IC50 is less than 1 µM.

`COc1ccc(CC(=O)O)cc1-c1ccc(C(F)(F)F)cc1CSC(C)(C)C` [Compound 1-3, (2′-tert-Butylsulfanylmethyl-6-methoxy-4′-trifluoromethyl-biphenyl-3-yl)-acetic acid] was tested. Which IC50 did it give?
Its IC50 is 1 to 10 µM.

Which IC50 does the source give for `COc1ccc(CC(=O)O)cc1-c1ccc(C(F)(F)F)cc1CSc1nnc(C)s1` [Compound 1-4, [6-Methoxy-2′-(5-methyl-[1,3,4]thiadiazol-2-ylsulfanylmethyl)-4′-trifluoromethyl-biphenyl-3-yl]-acetic acid] here?
Its IC50 is less than 1 µM.

Which IC50 does the source give for `COc1ccc(CC(=O)O)cc1-c1ccc(C(F)(F)F)cc1CSCC(F)(F)F` [Compound 1-5, [6-Methoxy-2′-(2,2,2-trifluoro-ethylsulfanylmethyl)-4′-trifluoromethyl-biphenyl-3-yl]-acetic acid] here?
The IC50 was 1 to 10 µM.

Which IC50 does the source give for `COc1ccc(CC(=O)O)cc1-c1ccc(C(F)(F)F)cc1COc1ccccc1` [Compound 1-6, (6-Methoxy-2′-phenoxymethyl-4′-trifluoromethyl-biphenyl-3-yl)-acetic acid] here?
Its IC50 is 1 to 10 µM.

For `COc1ccc(CC(=O)O)cc1-c1ccc(C(F)(F)F)cc1C[S+]([O-])c1ccccc1` (centres unmarked) [Compound 1-7, (2′-Benzenesulfinylmethyl-6-methoxy-4′-trifluoromethyl-biphenyl-3-yl)-acetic acid], which IC50 is on record?
Its IC50 is greater than 10 µM.

With `COc1ccc(CC(=O)O)cc1-c1ccc(C(F)(F)F)cc1C[S+]([O-])Cc1ccccc1` (centres unmarked) [Compound 1-8, (6-Methoxy-2′-phenylmethanesulfinylmethyl-4′-trifluoromethyl-biphenyl-3-yl)-acetic acid] as the compound, how does the IC50 read?
Its IC50 is greater than 10 µM.

`COc1ccc(CC(=O)O)cc1-c1ccc(C(F)(F)F)cc1C[S+]([O-])C(C)(C)C` (centres unmarked) [Compound 1-9, [6-Methoxy-2′-(2-methyl-propane-2-sulfinylmethyl)-4′-trifluoromethyl-biphenyl-3-yl]-acetic acid] was tested. Which IC50 did it give?
Its IC50 is greater than 10 µM.

`COc1ccc(CC(=O)O)cc1-c1ccc(C(F)(F)F)cc1C[S+]([O-])c1nnc(C)s1` (centres unmarked) [Compound 1-10, [6-Methoxy-2′-(5-methyl-[1,3,4]thiadiazole-2-sulfinylmethyl)-4′-trifluoromethyl-biphenyl-3-yl]-acetic acid] was tested. Which IC50 did it give?
The IC50 was greater than 10 µM.

For `COc1ccc(CC(=O)O)cc1-c1ccc(C(F)(F)F)cc1CS(=O)(=O)c1ccccc1` [Compound 1-11, (2′-Benzenesulfonylmethyl-6-methoxy-4′-trifluoromethyl-biphenyl-3-yl)-acetic acid], which IC50 is on record?
Its IC50 is 1 to 10 µM.

How did the IC50 turn out when `COc1ccc(CC(=O)O)cc1-c1ccc(C(F)(F)F)cc1CS(=O)(=O)Cc1ccccc1` [Compound 1-12, (6-Methoxy-2′-phenylmethanesulfonylmethyl-4′-trifluoromethyl-biphenyl-3-yl)-acetic acid] was run?
The IC50 was 1 to 10 µM.

Which IC50 does the source give for `COc1ccc(CC(=O)O)cc1-c1ccc(C(F)(F)F)cc1CS(=O)(=O)C(C)(C)C` [Compound 1-13, [6-Methoxy-2′-(2-methyl-propane-2-sulfonylmethyl)-4′-trifluoromethyl-biphenyl-3-yl]-acetic acid] here?
Its IC50 is greater than 10 µM.

With `COc1ccc(CC(=O)O)cc1-c1ccc(C(F)(F)F)cc1CS(=O)(=O)c1nnc(C)s1` [Compound 1-14, [6-Methoxy-2′-(5-methyl-[1,3,4]thiadiazole-2-sulfonylmethyl)-4′-trifluoromethyl-biphenyl-3-yl]-acetic acid] as the compound, how does the IC50 read?
Its IC50 is 1 to 10 µM.

Which IC50 does the source give for `CCN(Cc1ccccc1)C(=O)OCc1cc(C(F)(F)F)ccc1-c1cc(CC(=O)O)ccc1OC` [Compound 1-15, {2′-[(Benzyl-ethyl-carbamoyloxy)-methyl]-6-methoxy-4′-trifluoromethyl-biphenyl-3-yl}-acetic acid] here?
Its IC50 is 1 to 10 µM.

For `CCN(Cc1ccccc1)C(=O)OCc1cc(C(F)(F)F)ccc1-c1cc(CC(=O)O)ccc1F` [Compound 1-16, {2′-[(Benzyl-ethyl-carbamoyloxy)-methyl]-6-fluoro-4′-trifluoromethyl-biphenyl-3-yl}-acetic acid], which IC50 is on record?
Its IC50 is less than 1 µM.

With `O=C(O)CCn1c2c(c3ccccc31)C[C@H](NS(=O)(=O)c1ccc(F)cc1)CC2` [Ramatroban, reference compound] as the compound, how does the IC50 read?
Its IC50 is less than 1 µM.
